Measured values reported in patent publication US7632829B2, “Diazepan derivatives” (Hoffmann-La Roche Inc., priority 2006, dated 2009).

Target: T1, human chemokine receptor 2 isoform B (Homo sapiens, UniProt P41597)
T1 construct: host or cells: CHOK1-CCR2B-A5 (CHO-K1)
T1 sequence (P41597 1-360 isoform P41597-2): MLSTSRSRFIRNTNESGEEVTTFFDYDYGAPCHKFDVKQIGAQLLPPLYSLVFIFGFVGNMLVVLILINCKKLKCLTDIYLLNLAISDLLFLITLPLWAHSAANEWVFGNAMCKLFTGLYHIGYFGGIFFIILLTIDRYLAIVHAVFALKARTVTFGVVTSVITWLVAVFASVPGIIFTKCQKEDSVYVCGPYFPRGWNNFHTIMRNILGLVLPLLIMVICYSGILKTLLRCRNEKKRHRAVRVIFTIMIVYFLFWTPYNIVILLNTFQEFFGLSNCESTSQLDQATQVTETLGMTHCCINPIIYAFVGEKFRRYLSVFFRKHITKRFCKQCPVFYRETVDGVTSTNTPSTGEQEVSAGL
Test: Calcium mobilization assay (FLIPR, CHOK1-CCR2B-A5 cells, 20 nM MCP-1)
Type: cell-based
Details: Ca mobilisation assay, CCR2, antagonist activity vs 20 nM MCP-1
Method in brief: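 FLIPR Fluo-4 calcium readout in CHO-K1 cells stably overexpressing human CCR2B; compounds first monitored 80 s for agonist activity, then after 20-30 min at 30 °C challenged with 20 nM MCP-1. Response is max minus basal fluorescence; antagonist value is concentration giving 50% inhibition of specific calcium increase.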

IC50 [nM] | SMILES
1240 | O=C(/C=C/c1ccc(Cl)c(Cl)c1)N1CCC(=O)N(CCN2CCCCC2)CC1 [Example 3, 1-[(E)-3-(3,4-Dichloro-phenyl)-acryloyl]-4-(2-piperidin-1-yl-ethyl)-[1,4]diazepan-5-one]
150 | O=C(/C=C/c1ccc(Cl)c(Cl)c1)N1CCC(=O)N(CCCN2CCCCC2)CC1 [Example 4, 1-[(E)-3-(3,4-Dichloro-phenyl)-acryloyl]-4-(3-piperidin-1-yl-propyl)-[1,4]diazepan-5-one]
1310 | O=C(/C=C/c1ccc(Cl)c(Cl)c1)N1CCC(=O)N(CCCN2CCOCC2)CC1 [Example 6, 1-[(E)-3-(3,4-Dichloro-phenyl)-acryloyl]-4-(3-morpholin-4-yl-propyl)-[1,4]diazepan-5-one]
1290 | O=C(/C=C/c1ccc(F)c(F)c1)N1CCC(=O)N(CCCN2CCCCC2)CC1 [Example 7, 1-[(E)-3-(3,4-Difluoro-phenyl)-acryloyl]-4-(3-piperidin-1-yl-propyl)-[1,4]diazepan-5-one]
140 | O=C(/C=C/c1ccc(Cl)c(Cl)c1)N1CCC(=O)N(CCCCN2CCCCC2)CC1 [Example 9, 1-[(E)-3-(3,4-Dichloro-phenyl)-acryloyl]-4-(4-piperidin-1-yl-butyl)-[1,4]diazepan-5-one]
73 | CN(CCCCN1CCN(C(=O)/C=C/c2ccc(Cl)c(Cl)c2)CCC1=O)C1CCOCC1 [Example 10, 1-[(E)-3-(3,4-Dichloro-phenyl)-acryloyl]-4-{4-[methyl-(tetrahydro-pyran-4-yl)-amino]-butyl}-[1,4]diazepan-5-one]
363 | O=C(/C=C/c1ccc(F)c(Cl)c1)N1CCC(=O)N(CCCN2CCCCC2)CC1 [Example 11, 1-[(E)-3-(3-Chloro-4-fluoro-phenyl)-acryloyl]-4-(3-piperidin-1-yl-propyl)-[1,4]diazepan-5-one]
727 | O=C(/C=C/c1ccc(Cl)c(F)c1)N1CCC(=O)N(CCCN2CCCCC2)CC1 [Example 13, 1-[(E)-3-(4-Chloro-3-fluoro-phenyl)-acryloyl]-4-(3-piperidin-1-yl-propyl)-[1,4]diazepan-5-one]
756 | O=C(/C=C/c1ccc(OCc2ccccc2)cc1)N1CCC(=O)N(CCN2CCCC2)CC1 [Example 17, 1-[(E)-3-(4-Benzyloxy-phenyl)-acryloyl]-4-(2-pyrrolidin-1-yl-ethyl)-[1,4]diazepan-5-one]
1020 | O=C(/C=C/c1ccc2ccccc2c1)N1CCC(=O)N(CCN2CCCC2)CC1 [Example 25, 1-(E)-(3-Naphthalen-2-yl-acryloyl)-4-(2-pyrrolidin-1-yl-ethyl)-[1,4]diazepan-5-one]
248 | O=C(/C=C/c1cccc(Cl)c1)N1CCC(=O)N(CCN2CCC(c3c[nH]c4cc(F)ccc34)CC2)CC1 [Example 27, 1-[(E)-3-(3-Chloro-phenyl)-acryloyl]-4-{3-[4-(6-fluoro-1H-indol-3-yl)-piperidin-1-yl]-ethyl}-[1,4]diazepan-5-one]
1470 | O=C(/C=C/c1cccc(Cl)c1)N1CCC(=O)N(CCN2CCC(c3ccccc3)CC2)CC1 [Example 32, 1-[(E)-3-Chloro-phenyl-acryloyl]-4-{2-[4-phenyl-piperidin-1-yl]-ethyl}-[1,4]diazepan-5-one]
343 | O=C(/C=C/c1cccc(Cl)c1)N1CCC(=O)N(CCN2CCC(c3ccc(F)cc3)CC2)CC1 [Example 33, 1-[(E)-3-(3-Chloro-phenyl)-acryloyl]-4-[3-(4-(4-fluoro-phenyl)-piperidin-1-yl)-ethyl]-[1,4]diazepan-5-one]
1390 | O=C(/C=C/c1cccc(Cl)c1)N1CCC(=O)N(CCN2CCC(c3cccc(Cl)c3)CC2)CC1 [Example 34, 1-[(E)-3-(3-Chloro-phenyl)-acryloyl]-4-{2-[4-(3-chloro-phenyl)-piperidin-1-yl]-ethyl}-[1,4]diazepan-5-one]
725 | O=C(/C=C/c1ccc(Cl)c(Cl)c1)N1CCC(=O)N(CCCNC2CCCC2)CC1 [Example 36, 4-[3-(Cyclopentyl-amino)-propyl]-1-[(E)-3-(3,4-dichloro-phenyl)-acryloyl]-[1,4]diazepan-5-one]
265 | CN(CCCN1CCN(C(=O)/C=C/c2ccc(Cl)c(Cl)c2)CCC1=O)C1CCCC1 [Example 37, 4-[-3-(Cyclopentyl-methyl-amino)-propyl]-1-[(E)-3-(3,4-dichloro-phenyl)-acryloyl]-[1,4]diazepan-5-one]
538 | CN(CCCN1CCN(C(=O)/C=C/c2ccc(Cl)c(Cl)c2)CCC1=O)C1CCCCC1 [Example 39, 4-[3-(Cyclohexyl-methyl-amino)-propyl]-1-[(E)-3-(3,4-dichloro-phenyl)-acryloyl]-[1,4] diazepan-5-one]

IC50 [nM] | SMILES
611 | O=C(/C=C/c1ccc(Cl)c(Cl)c1)N1CCC(=O)N(CCCN2CCS(=O)(=O)CC2)CC1 [Example 40, 1-[(E)-3-(3,4-Dichloro-phenyl)-acryloyl]-4-[3-(1,1-dioxo-thiomorpholin-4-yl)-propyl]-[1,4]diazepan-5-one]
1180 | COCCN(C)CCCN1CCN(C(=O)/C=C/c2ccc(Cl)c(Cl)c2)CCC1=O [Example 41, 1-[(E)-3-(3,4-Dichloro-phenyl)-acryloyl]-4-{3-[(2-methoxy-ethyl)-methyl-amino]-propyl}-[1,4]diazepan-5-one]
13 | O=C(/C=C/c1ccc(Cl)c(Cl)c1)N1CCC(=O)N(CCCN2CCC(c3ccccc3)CC2)CC1 [Example 45, 1-[(E)-3-(3,4-Dichloro-phenyl)-acryloyl]-4-[3-(4-phenyl-piperidin-1-yl)-propyl]-[1,4]diazepan-5-one]
333 | O=C(/C=C/c1ccc(Cl)c(Cl)c1)N1CCC(=O)N(CCCN2CCCC2)CC1 [Example 46, 1-[(E)-3-(3,4-Dichloro-phenyl)-acryloyl]-4-(3-pyrrolidin-1-yl-propyl)-[1,4]diazepan-5-one]
193 | O=C(/C=C/c1ccc(Cl)c(Cl)c1)N1CCC(=O)N(CCCN2CCC[C@H]2CO)CC1 [Example 47, (S)-1-[(E)-3-(3,4-Dichloro-phenyl)-acryloyl]-4-[3-(2-hydroxymethyl-pyrrolidin-1-yl)-propyl]-[1,4]diazepan-5-one]
510 | O=C(/C=C/c1ccc(Cl)c(Cl)c1)N1CCC(=O)N(CCCN2CCC(O)(Cc3ccccc3)CC2)CC1 [Example 49, 4-[(E)-3-(4-Benzyl-4-hydroxy-piperidin-1-yl)-propyl]-1-[(E)-3-(3,4-dichloro-phenyl)-acryloyl]-[1,4]diazepan-5-one]
55 | CC1CCN(CCCN2CCN(C(=O)/C=C/c3ccc(Cl)c(Cl)c3)CCC2=O)CC1 [Example 50, 1-[(E)-3-(3,4-Dichloro-phenyl)-acryloyl]-4-[3-(4-methyl-piperidin-1-yl)-propyl]-[1,4]diazepan-5-one]
46 | O=C(/C=C/c1ccc(Cl)c(Cl)c1)N1CCC(=O)N(CCCN2CCSCC2)CC1 [Example 51, 1-[(E)-3-(3,4-Dichloro-phenyl)-acryloyl]-4-(3-thiomorpholin-4-yl-propyl)-[1,4]diazepan-5-one]
441 | O=C(/C=C/c1ccc(Cl)c(Cl)c1)N1CCC(=O)N(CCCN2CCC(O)(c3ccncc3)CC2)CC1 [Example 53, 1-[(E)-3-(3,4-Dichloro-phenyl)-acryloyl]-4-[3-(4-hydroxy-3,4,5,6-tetrahydro-2H-[4,4′]bipyridinyl-1-yl)-propyl]-[1,4]diazepan-5-one]
98 | O=C(/C=C/c1ccc(Cl)c(Cl)c1)N1CCC(=O)N(CCCN2CCC(F)(F)CC2)CC1 [Example 55, 1-[(E)-3-(3,4-Dichloro-phenyl)-acryloyl]-4-[3-(4,4-difluoro-piperidin-1-yl)-propyl]-[1,4]diazepan-5-one]
1080 | O=C(/C=C/c1ccc(Cl)c(Cl)c1)N1CCC(=O)N(CCCN2CCC(N3CCNC3=O)CC2)CC1 [Example 56, 1-[(E)-3-(3,4-Dichloro-phenyl)-acryloyl]-4-{3-[4-(2-oxo-imidazolidin-1-yl)-piperidin-1-yl]-propyl}-[1,4]diazepan-5-one]
217 | O=C(/C=C/c1ccc(Cl)c(Cl)c1)N1CCC(=O)N(CCCN2CCC(c3cc[nH]n3)CC2)CC1 [Example 57, 1-[(E)-3-(3,4-Dichloro-phenyl)-acryloyl]-4-{3-[4-(1H-pyrazol-3-yl)-piperidin-1-yl]-propyl}-[1,4]diazepan-5-one]
546 | Cc1nc(C2CCN(CCCN3CCN(C(=O)/C=C/c4ccc(Cl)c(Cl)c4)CCC3=O)CC2)n[nH]1 [Example 58, 1-[(E)-3-(3,4-Dichloro-phenyl)-acryloyl]-4-{3-[4-(5-methyl-1H-[1,2,4]triazol-3-yl)-piperidin-1-yl]-propyl}-[1,4]diazepan-5-one]
23 | N#CC1(c2ccccc2)CCN(CCCN2CCN(C(=O)/C=C/c3ccc(Cl)c(Cl)c3)CCC2=O)CC1 [Example 60, 1-(-3-{4-[(E)-3-(3,4-Dichloro-phenyl)-acryloyl]-7-oxo-[1,4]diazepan-1-yl}-propyl)-4-phenyl-piperidine-4-carbonitrile]
503 | O=C(/C=C/c1ccc(Cl)c(Cl)c1)N1CCC(=O)N(CCCNC2CCOCC2)CC1 [Example 63, 1-[(E)-3-(3,4-Dichloro-phenyl)-acryloyl]-4-[3-(tetrahydro-pyran-4-ylamino)-propyl]-[1,4]diazepan-5-one]
197 | O=C(C=Cc1ccc(Cl)c(Cl)c1)N1CCC(=O)N(CCCNC2CCC(O)(c3ccccn3)CC2)CC1 (stereo not drawn) [Example 65, trans-1-[(E)-3-(3,4-Dichloro-phenyl)-acryloyl]-4-[3-(4-hydroxy-4-pyridin-2-yl-cyclohexylamino)-propyl]-[1,4]diazepan-5-one]
